# Laboratory results published in EP0641858A1, “SERUM CALCIUM DEPRESSING FACTOR” (Chugai Seiyaku Kabushiki Kaisha, priority 1991, dated 1992).
# Non-standard residues stand in square brackets, D forms with d. Residues, ends and D or L forms follow the SMILES beside them. *: point of attachment. Sta = CC(C)C[C@H](N)[C@@H](O)CC(=O)O; Isovaleryl = CC(C)CC(=O)*
# Legend:
# [1] = target: T1, serum calcium decreasing factor of pig origin (from porcine pancreas), N-terminal sequence SEQ ID NO: 1 (Sus scrofa, UniProt F1SUW2, E34Q/S46R); experiment: Effect of protease inhibitors on protease activity (azo-casein substrate, OD at 340 nm); type: biochemical
# T1 sequence (F1SUW2 30-268 E34Q/S46R): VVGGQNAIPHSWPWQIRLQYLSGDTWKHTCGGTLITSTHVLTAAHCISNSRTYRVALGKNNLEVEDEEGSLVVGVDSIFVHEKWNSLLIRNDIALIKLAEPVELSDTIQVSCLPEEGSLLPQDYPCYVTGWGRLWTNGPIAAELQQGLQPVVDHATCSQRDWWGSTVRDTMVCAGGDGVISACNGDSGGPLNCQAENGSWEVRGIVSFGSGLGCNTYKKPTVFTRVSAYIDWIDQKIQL
# Description: In steps of the purification, since it was observed that a fragment which was assumed to be a degraded fragment of the serum calcium decreasing factor protein, was generated, it is assumed that this serum calcium decreasing factor has proteolytic activity. An effect of various protease inhibitors against the serum calcium decreasing factor protein of this invention was tested as follows: 1 mg/ml azo-casein was used as a substrate, incubation was conducted at temperature of 37°C for 30 min in 0.25 ml, 1 ml of 5% trichloroacetic acid was added thereto, and then the supernatant from centrifugation of the reaction products was measured for OD at 340 nm. The resulting value was used as proteolytic activity. The effect of each protease inhibitor is shown based upon a percentage where proteolytic activity of a control sample without the inhibitor is 100%.
# The protease inhibitors used include phenylmethansulfonyl fluoride (PMSF), which is a serin-protease inhibitor; (4-amidinophenyl)-methanesulfonyl fluoride (APMSF), which is a trypsin-type serin-protease inhibitor; leupetin, which is a trypsin-type serin-protease-thiolprotease inhibitor; chymostatin, which is a chymotrypsin-type serinprotease inhibitor; N-[N-3-trans-carboxyoxirane-2-carbonyl)-L-leucyl]agmatine (E-64), which is a thiolprotease inhibitor; pepstatin, which is an acid protease inhibitor; trypsin inhibitors which are inhibitors of trypsin, Xa-factor, plasmin and plasmakallikrein; and aprotinin, which is an inhibitor of trypsin and kallikrein.
# [2] = Serum calcium lowering in mice, in vivo assay; conditions: PMSF alone administered to mice (control of Fig. 5)
# Description: Male BALB/c mice of 4 to 6 weeks old were starved for 18 hours and 0.1M Tris-HCl buffer (pH 7.5) or 0.1M Tris-HCl buffer containing each of the three peaks dissolved therein was administered through a mouse tail vein at a dose of 100 µl per 20g of the body weight. After 4 hours, blood was drawn from the heart under ether anesthesia and serum was obtained. The serum calcium concentration was measured according to the orth-cresol phthalein complexion method.
# Next, lowering of serum calcium concentration by serum calcium decreasing factor in an in vivo assay on mice was tested using serum calcium decreasing factor treated with PMSF and non-treated serum calcium decreasing factor. In the figure, open circles show the result of non-treated serum calcium decreasing factor, closed circles show the result of serum calcium decreasing factor treated with PMSF, and closed boxes show the result (control) wherein PMSF alone was administrated in an amount provided when serum calcium decreasing factor was administrated in an amount shown on the absissa.
# [3] = inhibitor 100 µM, 1 mg/ml azo-casein, 37°C, 30 min, control without inhibitor = 100%, read-out: Activity of Protease (per Activity of Control%)
smiles,measurement,setting,value
"N=C(N)c1ccc(CS(=O)(=O)F)cc1 [APMSF, (4-amidinophenyl)-methanesulfonyl fluoride]",inhibition of protease activity (in words),[1]; inhibitor 50 µM,not being inhibited
same,Activity of Protease (per Activity of Control%),"[1]; inhibitor 50 µM, 1 mg/ml azo-casein, 37°C, 30 min, control without inhibitor = 100%",107.0%
CC(C)C[C@H](NC(=O)[C@@H](NC(=O)N[C@@H](Cc1ccccc1)C(=O)O)[C@@H]1CCN=C(N)N1)C(=O)N[C@H](C=O)Cc1ccccc1 [Chymostatin],inhibition of protease activity (in words),[1]; inhibitor 100 µM,inhibited
same,remaining activity at 100 µM,[1]; [3],16.1%
"CC(C)CC(NC(=O)C1OC1C(=O)O)C(=O)NCCCCN=C(N)N [E-64, N-[N-3-trans-carboxyoxirane-2-carbonyl)-L-leucyl]agmatine]",inhibition of protease activity (in words),[1]; inhibitor 2.5 µg/ml,not being inhibited
same,remaining activity at 2.5 µg/mL,"[1]; inhibitor 2.5 µg/ml, 1 mg/ml azo-casein, 37°C, 30 min, control without inhibitor = 100%, read-out: Activity of Protease (per Activity of Control%)",108%
CC(=O)N[C@@H](CC(C)C)C(=O)N[C@@H](CC(C)C)C(=O)N[C@H](C=O)CCCNC(=N)N [Leupeptin],inhibition of protease activity (in words),[1]; inhibitor 100 µM,partially inhibited
same,remaining activity at 100 µM,[1]; [3],86.8%
"O=S(=O)(F)Cc1ccccc1 [PMSF, phenylmethansulfonyl fluoride]",inhibition of protease activity (in words),[1]; inhibitor 1 mM,inhibited
same,Activity of Protease (per Activity of Control%),"[1]; inhibitor 1 mM, 1 mg/ml azo-casein, 37°C, 30 min, control without inhibitor = 100%",8.8%
same,lowering of serum calcium,[2],did not lower serum calcium
CC(C)CC(=O)N[C@H](C(=O)N[C@H](C(=O)N[C@@H](CC(C)C)[C@@H](O)CC(=O)N[C@@H](C)C(=O)N[C@@H](CC(C)C)[C@@H](O)CC(=O)O)C(C)C)C(C)C [Pepstatin] (Isovaleryl-VV[Sta]A[Sta]-OH),inhibition of protease activity (in words),[1]; inhibitor 100 µM,partially inhibited
same,remaining activity at 100 µM,[1]; [3],67.9%
